Assay results published in ChEMBL document CHEMBL5316313, “Discovery of Novel 3-Phenylpiperidine Derivatives Targeting the β-Catenin/B-Cell Lymphoma 9 Interaction as a Single Agent and in Combination with the Anti-PD-1 Antibody for the Treatment of Colorectal Cancer” (J Med Chem, 2023).

Legend:
[1] = molecular target: T1, beta-catenin-B-cell lymphoma 9 protein complex (Homo sapiens, UniProt P35222); experiment: Inhibition of N-terminal His6-tagged full-length recombinant beta-catenin (1 to 781 residues) (unknown origin) expressed in Escherichia coli BL21 DE3/N-terminal FAM tagged BCL9 HD2(350 to 375 residues) (unknown origin) protein-protein interaction assessed as inhibition constant incubated for 3 hrs by competitive fluorescence polarization assay
T1 sequence (P35222 whole entry): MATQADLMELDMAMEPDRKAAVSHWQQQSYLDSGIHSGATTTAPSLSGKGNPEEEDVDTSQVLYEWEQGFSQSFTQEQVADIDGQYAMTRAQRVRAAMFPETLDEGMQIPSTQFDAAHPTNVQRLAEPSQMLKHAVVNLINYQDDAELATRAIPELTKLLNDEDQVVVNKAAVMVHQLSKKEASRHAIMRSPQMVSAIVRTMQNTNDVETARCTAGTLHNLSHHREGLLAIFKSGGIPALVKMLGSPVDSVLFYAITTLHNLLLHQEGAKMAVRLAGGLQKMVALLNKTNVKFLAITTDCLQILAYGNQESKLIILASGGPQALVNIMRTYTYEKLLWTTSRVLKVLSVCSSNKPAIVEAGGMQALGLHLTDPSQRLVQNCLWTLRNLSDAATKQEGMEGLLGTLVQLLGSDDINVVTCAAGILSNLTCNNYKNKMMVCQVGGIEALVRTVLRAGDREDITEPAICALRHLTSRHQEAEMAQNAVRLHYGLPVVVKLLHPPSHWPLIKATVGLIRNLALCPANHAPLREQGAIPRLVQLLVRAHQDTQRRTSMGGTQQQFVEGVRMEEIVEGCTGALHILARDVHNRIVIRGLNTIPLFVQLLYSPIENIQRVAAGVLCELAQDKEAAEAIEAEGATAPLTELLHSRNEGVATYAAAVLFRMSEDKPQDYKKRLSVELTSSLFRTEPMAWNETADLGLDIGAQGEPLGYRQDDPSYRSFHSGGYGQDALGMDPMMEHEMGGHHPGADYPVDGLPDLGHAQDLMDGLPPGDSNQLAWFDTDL
T1 sequence (O00512 whole entry): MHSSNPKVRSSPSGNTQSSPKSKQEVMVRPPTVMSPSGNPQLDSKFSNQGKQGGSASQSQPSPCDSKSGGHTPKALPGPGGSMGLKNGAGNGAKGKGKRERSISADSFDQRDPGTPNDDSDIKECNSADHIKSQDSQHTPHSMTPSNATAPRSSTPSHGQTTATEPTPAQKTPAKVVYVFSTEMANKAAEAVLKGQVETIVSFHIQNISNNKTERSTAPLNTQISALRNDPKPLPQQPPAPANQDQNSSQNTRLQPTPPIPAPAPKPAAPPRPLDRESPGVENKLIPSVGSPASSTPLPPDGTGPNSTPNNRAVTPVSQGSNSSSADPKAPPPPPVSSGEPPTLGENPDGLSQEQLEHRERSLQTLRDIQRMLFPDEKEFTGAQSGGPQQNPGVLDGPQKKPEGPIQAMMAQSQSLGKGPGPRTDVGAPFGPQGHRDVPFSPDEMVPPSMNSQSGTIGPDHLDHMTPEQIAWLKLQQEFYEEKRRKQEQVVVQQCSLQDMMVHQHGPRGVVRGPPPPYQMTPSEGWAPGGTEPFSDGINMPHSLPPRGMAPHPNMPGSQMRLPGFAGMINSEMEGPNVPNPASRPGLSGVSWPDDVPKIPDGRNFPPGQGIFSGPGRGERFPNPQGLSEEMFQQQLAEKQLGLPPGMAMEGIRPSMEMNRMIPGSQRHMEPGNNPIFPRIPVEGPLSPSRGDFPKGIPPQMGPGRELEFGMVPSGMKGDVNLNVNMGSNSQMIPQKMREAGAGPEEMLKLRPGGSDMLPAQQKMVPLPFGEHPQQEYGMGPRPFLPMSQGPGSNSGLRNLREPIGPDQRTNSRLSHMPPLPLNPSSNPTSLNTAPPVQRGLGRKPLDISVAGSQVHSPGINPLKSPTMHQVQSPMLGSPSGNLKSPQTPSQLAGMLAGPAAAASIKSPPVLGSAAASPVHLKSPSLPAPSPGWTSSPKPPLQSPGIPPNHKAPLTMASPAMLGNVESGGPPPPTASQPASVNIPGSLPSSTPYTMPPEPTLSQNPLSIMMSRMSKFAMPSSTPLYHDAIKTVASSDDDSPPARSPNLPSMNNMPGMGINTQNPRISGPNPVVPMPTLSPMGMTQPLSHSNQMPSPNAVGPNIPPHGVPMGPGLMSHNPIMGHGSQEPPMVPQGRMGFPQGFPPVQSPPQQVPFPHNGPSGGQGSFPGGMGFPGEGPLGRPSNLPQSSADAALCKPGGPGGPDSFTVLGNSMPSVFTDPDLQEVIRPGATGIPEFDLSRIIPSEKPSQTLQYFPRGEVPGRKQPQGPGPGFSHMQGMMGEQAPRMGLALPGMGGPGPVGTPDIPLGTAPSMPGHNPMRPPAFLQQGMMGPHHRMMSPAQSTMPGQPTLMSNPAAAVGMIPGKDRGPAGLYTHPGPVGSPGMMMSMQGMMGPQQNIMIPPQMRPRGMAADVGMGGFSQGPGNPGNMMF

[2] = Microsomal stability in mouse liver microsomes assessed as half life at […] and measured upto 60 mins by LC-MS/MS analysis; format: ADME, Microsome
[3] = Microsomal stability in mouse liver microsomes assessed as intrinsic clearance at […] and measured upto 60 mins by LC-MS/MS analysis; format: ADME, Microsome; details: read-out: CLH
[4] = Microsomal stability in human liver microsomes assessed as half life at […] and measured upto 60 mins by LC-MS/MS analysis; format: ADME, Microsome
[5] = Microsomal stability in human liver microsomes assessed as intrinsic clearance at […] and measured upto 60 mins by LC-MS/MS analysis; format: ADME, Microsome; details: read-out: CLH
[6] = molecular target: T1, beta-catenin-B-cell lymphoma 9 protein complex; experiment: Inhibition of beta-catenin/BCL9 protein-protein interaction in Wnt-dependent human HCT-116 cells assessed as reduction in Axin2 expression level by qRT-PCR assay; format: cell-based

| SMILES | IC50 [1] [µM] | IC50 [6] [µM] | other results |
| --- | --- | --- | --- |
| CC(C)(Oc1cccc(C2CCCN(C(=O)OCc3ccc4ncccc4c3)C2)c1)C(=O)O (configuration not stated) | > 10 |  |  |
| CC(C)c1ccc(COC(=O)N2CCC(c3cccc(OC(C)(C)C(=O)O)c3)CC2)cc1 | 4.86 |  |  |
| CC(C)(Oc1cccc(C2CCCN(S(=O)(=O)c3cccc(-c4ccc(F)c(F)c4)c3)C2)c1)C(=O)O (configuration not stated) | > 10 |  |  |
| Cc1ccc(COC(=O)N2CCCC(c3cccc(OC(C)(C)C(=O)O)c3)C2)cc1C (configuration not stated) | 4.2 |  |  |
| CC(C)c1ccc(CNC(=O)N2CCCC(c3cccc(OC(C)(C)C(=O)O)c3)C2)cc1 (configuration not stated) | 8.62 |  |  |
| Cc1ccc(-c2cccc(S(=O)(=O)N3CCCC(c4cccc(OC(C)(C)C(=O)O)c4)C3)c2)cc1C (configuration not stated) | 4.63 |  |  |
| CC(C)c1ccc(-c2cccc(S(=O)(=O)N3CCC[C@@H](c4cccc(OC(C)(C)C(=O)NS(=O)(=O)c5ccc(C(F)(F)F)cc5)c4)C3)c2)cc1 |  |  | half-life [2]: 14.8 min; microsomal CLint [3]: 93.4 µL/min/mg; half-life [4]: 69.3 min; microsomal CLint [5]: 20 µL/min/mg |
| COc1ccc(COC(=O)N2CCCC(c3cccc(OC(C)(C)C(=O)O)c3)C2)cc1 (configuration not stated) | 5.27 |  |  |
| CC(C)c1ccc(-c2cccc(S(=O)(=O)N3CCCC(c4cccc(OC(C)(C)C(=O)NS(=O)(=O)c5ccc(OC(F)(F)F)cc5)c4)C3)c2)cc1 (configuration not stated) | 1 | 1.19 |  |
| CC(C)(Oc1cccc(C2CCCN(C(=O)OCc3ccc(F)cc3F)C2)c1)C(=O)O (configuration not stated) | 5.19 |  |  |
| CC(C)c1ccc(-c2cccc(S(=O)(=O)N3CCC[C@H](c4cccc(OC(C)(C)C(=O)NS(=O)(=O)c5ccc(C(F)(F)F)cc5)c4)C3)c2)cc1 |  |  | half-life [2]: 37.7 min; microsomal CLint [3]: 36.8 µL/min/mg; half-life [4]: 21.8 min; microsomal CLint [5]: 63.6 µL/min/mg |
| CC(C)c1ccc(-c2cccc(S(=O)(=O)N3CCCC(c4cccc(OC(C)(C)C(=O)O)c4)C3)c2)cc1 (configuration not stated) | 1.58 | 2.26 |  |
| CC(C)c1cccc(-c2cccc(S(=O)(=O)N3CCCC(c4cccc(OC(C)(C)C(=O)O)c4)C3)c2)c1 (configuration not stated) | 4.27 |  |  |
| CC(C)c1ccc(-c2cccc(C(=O)N3CCCC(c4cccc(OC(C)(C)C(=O)O)c4)C3)c2)cc1 (configuration not stated) | > 10 |  |  |
| COc1ccc(COC(=O)N2CCCC(c3cccc(OC(C)(C)C(=O)O)c3)C2)cc1OC (configuration not stated) | 6.8 |  |  |
| CC(C)c1ccc(-c2cccc(S(=O)(=O)N3CCCC(c4cccc(OC(C)(C)C(=O)NS(=O)(=O)c5cccs5)c4)C3)c2)cc1 (configuration not stated) |  |  | half-life [2]: 5.75 min; microsomal CLint [3]: 241 µL/min/mg; half-life [4]: 6.17 min; microsomal CLint [5]: 225 µL/min/mg |
| CC(C)c1ccc(-c2cccc(S(=O)(=O)N3CCCC(c4cccc(OC(C)(C)C(=O)NS(=O)(=O)c5ccc(C#N)cc5)c4)C3)c2)cc1 (configuration not stated) | 1.86 | 1.49 |  |
| CC(C)c1ccc(-c2cccc(S(=O)(=O)N3CCCC(c4cccc(OC(C)(C)C(=O)NS(=O)(=O)c5ccccc5)c4)C3)c2)cc1 (configuration not stated) | 1.18 | 1.1 | half-life [2]: 19.8 min; microsomal CLint [3]: 70 µL/min/mg; half-life [4]: 8.67 min; microsomal CLint [5]: 160 µL/min/mg |
| CC(C)(Oc1cccc(C2CCCN(S(=O)(=O)c3cccc(-c4cccs4)c3)C2)c1)C(=O)O (configuration not stated) | > 10 |  |  |

| SMILES | IC50 [1] [µM] | IC50 [6] [µM] | other results |
| --- | --- | --- | --- |
| CC(C)(Oc1cccc(C2CCCN(S(=O)(=O)c3cccc(-c4ccc(C(C)(C)C)cc4)c3)C2)c1)C(=O)O (configuration not stated) | 3.14 | 1.31 |  |
| CC(C)c1ccc(-c2cccc(S(=O)(=O)N3CCCC(c4cccc(OC(C)(C)C(=O)NCc5ccccc5)c4)C3)c2)cc1 (configuration not stated) | 3.76 | 10 |  |
| CC(C)(Oc1cccc(C2CCCN(C(=O)OCc3ccc4ccccc4c3)C2)c1)C(=O)O (configuration not stated) | > 10 |  |  |
| CC(C)c1ccc(/C=C/C(=O)N2CCCC(c3cccc(OC(C)(C)C(=O)O)c3)C2)cc1 (configuration not stated) | 5.39 |  |  |
| CC(C)c1ccc(-c2cccc(S(=O)(=O)N3CCCC(c4cccc(OC(C)(C)C(=O)NS(=O)(=O)c5cccc(C#N)c5)c4)C3)c2)cc1 (configuration not stated) | 1.27 | 1.13 |  |
| CC(C)(Oc1cccc(C2CCCN(C(=O)OCc3ccc(C(C)(C)C)cc3)C2)c1)C(=O)O (configuration not stated) | > 10 |  |  |
| CC(C)(Oc1cccc(C2CCCN(S(=O)(=O)c3cccc(-c4ccsc4)c3)C2)c1)C(=O)O (configuration not stated) | 4 |  |  |
| CC(=O)Nc1ccc(S(=O)(=O)NC(=O)C(C)(C)Oc2cccc(C3CCCN(S(=O)(=O)c4cccc(-c5ccc(C(C)C)cc5)c4)C3)c2)cc1 (configuration not stated) | 0.89 | 2.93 |  |
| CC(C)(Oc1cccc(C2CCCN(S(=O)(=O)c3cccc(C4CCCCC4)c3)C2)c1)C(=O)O (configuration not stated) | > 10 |  |  |
| CC(C)c1ccc(-c2cccc(S(=O)(=O)N3CCCC(c4cccc(OC(C)(C)C(=O)NS(=O)(=O)c5cccc(C(F)(F)F)c5)c4)C3)c2)cc1 (configuration not stated) | 2.47 | 1.33 |  |
| CC(C)c1ccc(-c2cccc(S(=O)(=O)N3CCCC(c4cccc(OC(C)(C)C(=O)NS(=O)(=O)c5ccc(C(F)(F)F)cc5Cl)c4)C3)c2)cc1 (configuration not stated) | 1.18 | 1.36 |  |
| COC(=O)C(C)(C)Oc1cccc(C2CCCN(C(=O)OCc3ccc(C(C)C)cc3)C2)c1 (configuration not stated) | 5.21 |  |  |
| CC(C)(Oc1cccc(C2CCCN(S(=O)(=O)c3cccc(-c4ccc5ccsc5c4)c3)C2)c1)C(=O)O (configuration not stated) | 3.27 | 3.58 |  |
| COc1ccc(S(=O)(=O)NC(=O)C(C)(C)Oc2cccc(C3CCCN(S(=O)(=O)c4cccc(-c5ccc(C(C)C)cc5)c4)C3)c2)cc1 (configuration not stated) | 4.47 |  |  |
| CC(C)(Oc1cccc(C2CCCN(S(=O)(=O)c3cccc(-c4ccccc4)c3)C2)c1)C(=O)O (configuration not stated) | 8.3 |  |  |
| Cc1ccc(COC(=O)N2CCCC(c3cccc(OC(C)(C)C(=O)O)c3)C2)cc1 (configuration not stated) | 6.7 |  |  |
| CC(C)(Oc1cccc(C2CCCN(C(=O)OCC3CCCCC3)C2)c1)C(=O)O (configuration not stated) | 3.9 | > 10 |  |
| CC(C)(Oc1cccc(C2CCCN(C(=O)OCc3ccc(F)c(F)c3)C2)c1)C(=O)O (configuration not stated) | 4.32 |  |  |
